According to paper PMC9653258, “NDUFS3 knockout cancer cells and molecular docking reveal specificity and mode of action of anti-cancer respiratory complex I inhibitors” (Open Biology, 2022):
Where two headings read alike, the source gives them in different places.

How the values were obtained:
[1] = test system: NDUFS3^+/+ and NDUFS3^−/− SKOV3, HCT116 and B16-F10 cells; assay: Specificity assay: proliferation of NDUFS3^+/+ versus NDUFS3^−/− cells, Incucyte; type: cell-based, human, murine; details: EVP 4593 100 nM (SKOV3, HCT116), 200 nM (B16-F10); BAY 87-2243 1 µM, 20 µM (B16-F10); IACS-010759 1 µM, 5 µM (B16-F10); 72 h
Experimental: (§1) Cell proliferation and morphology were assessed using the Incucyte Live-imaging System (Sartorius) and proliferation was quantified through time-lapse image acquisition and metrics application.
(§2) Briefly, 2.5 × 10^3 SKOV3/well, 2 × 10^3 HCT116/well and 1 × 10^3 B16-F10/well were seeded in 96-well plates in high-glucose DMEM and incubated overnight to allow cells attachment. For specificity assays, NDUFS3 wild-type and knockout cells were seeded simultaneously, and the same confluence mask was applied for subsequent analysis. […] Cell growth was evaluated by Incucyte system phase contrast software (confluence metrics), which provides an occupied area average (% of confluence) per image/per well. For data in electronic supplementary material, figures S1 and S2, the analysis was performed using % of confluence metric per scan normalized on treatment starting point (time 0). For data in figures 1 and 2, the percentage of cell confluence normalized on time 0 for each inhibitor's treatment was subsequently normalized to untreated control. At least three replicate experiments were performed for each treatment condition.

[2] = test system: mitochondrial respiration of HCT116 cells; assay: Microrespirometry (Seahorse XFe, oxygen consumption rate); type: cell-based, human; details: for IC50: Homo sapiens, read-out: IC50 (residual OCR, concentration-response)
Experimental: (§3) Mitochondrial respiration was measured using the protocol described for the Seahorse XFe Cell Mito Stress Test Kit (Agilent #103015-100) following the manufacturer instructions. Briefly, 12 × 10^3 cells/well (SKOV3, HCT116) and 8 × 10^3 (B16-F10) were seeded in 80 µl of DMEM medium into XFe96 cell culture plates and incubated for 48 h (HCT116) and for 24 h (SKOV3, B16-F10) at 37°C and 5% CO2. Complete growth medium was replaced with 180 µl of XF medium (Agilent #103575-100) supplemented with 10 mM glucose, 1 mM sodium pyruvate, 2 mM L-glutamine, at pH 7.4. For temperature and pH equilibration, cells were incubated at 37°C for 30 min. Three oxygen consumption rate (OCR) baseline measurements were followed by injection of either vehicle or different concentrations of CI-inhibitors and subsequent measurements; 1 µM oligomycin, carbonyl cyanide-p-trifluoromethoxyphenylhydrazone (FCCP), 1 µM rotenone and 1 µM antimycin A were sequentially added to each well. FCCP concentrations were previously optimized by titration and were 0.5 µM for SKOV3, 0.75 µM for HCT116 and 1 µM for B16-F10, respectively. At the end of the assay, medium was removed and sulforhodamine B (SRB) assay was performed to determine protein content for normalization. Briefly, plates were incubated with 10% trichloroacetic acid (TCA) for 1 h at 4°C to fix the cells. Five washes in water were carried out. Once the plates were dry, proteins were stained by incubation with 0.4% SRB for 30 min at RT. SRB was solubilized with 10 mM Tris and absorbance at 560 nm was determined using a Victor2 plate reader (Perkin-Elmer). Data (pmol min^−1) were normalized to blank corrected SRB absorbance.

[3] = test system: mitochondrial respiration of SKOV3 cells; assay: as above; type: cell-based, human; details: for IC50: Homo sapiens, read-out: IC50 (residual OCR, concentration-response)
Experimental: as §3

[4] = test system: mitochondrial respiration of B16-F10 cells; assay: as above; type: cell-based, murine; details: for IC50: Mus musculus
Experimental: as §3

[5] = test system: SKOV3 cells; assay: Apoptotic cell death, Incucyte Caspase-3/7 green dye; type: cell-based, human; details: 72 h
Experimental: (§7) Cells (SKOV3, HCT116 and B16-F10) were seeded in a 96-wells plate in high glucose DMEM, as described above. Drugs were added after 24 h, in presence of 5 µM Incucyte Caspase-3/7 green dye following the manufacturer's protocol. Then, the plate was placed in Incucyte for 72 h and images (4/well) were captured at 10× magnification with 2 h intervals, both in phase contrast and fluorescent green channel. For each cell line, staurosporine (100 nM, Sigma-Aldrich #S4400) treatment was performed as a positive control. For each experimental condition, the masks for fluorescent objects identification were set by the Incucyte integrated analysis software. Total and green positive cells were counted at 10× magnification in three fields of view per condition, and data are expressed as percentage of apoptotic cells [(number of green cells/number of total cells) × 100].

[6] = test system: HCT116 cells; assay: as above; type: cell-based, human; details: 72 h
Experimental: as §7

[7] = test system: mitochondrial respiration of SKOV3, HCT116 and B16-F10 cells; assay: Microrespirometry (Seahorse XFe, OCR), stated across cell models; type: cell-based, human, murine
Experimental: as §3

[8] = test system: HCT116^−/− cells (NDUFS3 knockout); assay: Proliferation of CI-deficient cells, Incucyte; type: cell-based, human
From the text: (§4) Human ovarian cancer cell line SKOV3 and murine melanoma cell line B16-F10 were purchased from ATCC (#HTB-77; #CRL-6475, Manassas, VA, USA). Human colorectal cancer cell line HCT116 was authenticated using […]dentifiler kit (Applied Biosystem #4322288) and its STR profile corresponded to the putative background. Mitochondrial DNA (mtDNA) was sequenced by Sanger sequencing as previously described, to ensure wild-type genotype. The results are available upon request. NDUFS3 knockout cells, referred as SKOV3^−/−, HCT116^−/− and B16-F10^−/−, were generated by genome editing as previously reported. Briefly, CRISPR/Cas9 system was used to introduce a frameshift mutation in NDUFS3 gene in SKOV3 human cell line and Ndufs3 gene in B16-F10 murine cell line, using exon 2 targeting guide […] and exon 3 targeting guide […], respectively. Instead, zinc finger endonuclease system was used to obtain HCT116 NDUFS3 knockout. Plasmids containing cDNA of NDUFS3-targeted zinc finger endonucleases (Sigma-Aldrich #CKOZFND15186) were purified and transcribed in vitro. The pool of zinc finger endonucleases mRNAs was transfected into 70% confluent HCT116 cells. The resulting heterozygous clones were subjected to a subsequent second transfection with NDUFS3 zinc finger pool and led to the selection of homozygous frameshift NDUFS3 mutants.
as §1, §2

[9] = test system: SKOV3^−/− cells (NDUFS3 knockout); assay: Proliferation of CI-deficient cells, Incucyte; type: cell-based, human
From the text: as §4, §1, §2

[10] = test system: B16-F10 cells (NDUFS3^+/+); assay: Cell proliferation, Incucyte live-imaging (confluence); type: cell-based, murine
Experimental: as §1, §2

[11] = test system: SKOV3 cells (NDUFS3^+/+); assay: as above; type: cell-based, human
Experimental: as §1, §2

[12] = test system: HCT116 cells (NDUFS3^+/+); assay: as above; type: cell-based, human
Experimental: as §1, §2

[13] = test system: B16-F10^−/− cells (NDUFS3 knockout); assay: Proliferation of CI-deficient cells, Incucyte; type: cell-based, murine
From the text: (§5) Human ovarian cancer cell line SKOV3 and murine melanoma cell line B16-F10 were purchased from ATCC (#HTB-77; #CRL-6475, Manassas, VA, USA). Human colorectal cancer cell line HCT116 was authenticated using […]dentifiler kit (Applied Biosystem #4322288) and its STR profile corresponded to the putative background. Mitochondrial DNA (mtDNA) was sequenced by Sanger sequencing as previously described, to ensure wild-type genotype. The results are available upon request. NDUFS3 knockout cells, referred as SKOV3^−/−, HCT116^−/− and B16-F10^−/−, were generated by genome editing as previously reported. Briefly, CRISPR/Cas9 system was used to introduce a frameshift mutation in NDUFS3 gene in SKOV3 human cell line and Ndufs3 gene in B16-F10 murine cell line, using exon 2 targeting guide […] and exon 3 targeting guide […], respectively. […]
as §1
(§6) Briefly, 2.5 × 10^3 SKOV3/well, 2 × 10^3 HCT116/well and 1 × 10^3 B16-F10/well were seeded in 96-well plates in high-glucose DMEM and incubated overnight to allow cells attachment. […] Cell growth was evaluated by Incucyte system phase contrast software (confluence metrics), which provides an occupied area average (% of confluence) per image/per well. […]

[14] = test system: CI (respiratory complex I) in permeabilized SKOV3, HCT116 and B16-F10 cells; assay: Mitochondrial ATP synthesis rate, CI-driven, digitonin-permeabilized cells (luciferin/luciferase); type: cell-based, human, murine; details: optimized concentrations; all the investigated cell models
Experimental: The rate of mitochondrial ATP synthesis was measured in digitonin-permeabilized CI competent cells by using a luciferin/luciferase assay as previously described with minor modifications [47]. Chemiluminescence was determined as a function of time with a luminometer (Sirius L Tube, Titertek-Berthold, Pforzheim, Germany). After trypsinization, cells (10 × 10^6 ml^−1) were suspended in a buffer containing 150 mM KCl, 25 mM Tris–HCl, 2 mM EDTA (ethylenediaminetetraacetic acid), 0.1% bovine serum albumin, 10 mM potassium phosphate, 0.1 mM MgCl2, pH 7.4, kept at room temperature for 15 min, then incubated with 50 µg ml^−1 digitonin until 90–100% of cells were positive to Trypan Blue staining. Aliquots of 3 × 10^5 permeabilized cells were incubated in the same buffer in the presence of the adenylate kinase inhibitor P1,P5-di(adenosine-5′) pentaphosphate (0.1 mM, Sigma-Aldrich #A2754) and 10 µl of the luciferin/luciferase assay reagent (Sigma-Aldrich #FLAAM-5VL). Then, ATP synthesis rate was determined after the sequential addition of the following substrates and inhibitors. […] Then, CI inhibitors were added at the optimized concentrations that completely suppress maximal respiration previously determined by titration with Seahorse. […]

[15] = test system: SKOV3, HCT116 and B16-F10 cells; assay: Apoptotic cell death, Incucyte Caspase-3/7 green dye (all cell models); type: cell-based, human, murine; details: 72 h
Experimental: as §7

[16] = test system: NDUFS3^−/− cells (SKOV3^−/−, HCT116^−/−, B16-F10^−/−); assay: Proliferation of CI-deficient cells, Incucyte (all three models); type: cell-based, human, murine; details: tested concentrations (up to 1 µM)
From the text: as §5, §1, §6

[17] = metformin, dose-dependent over the tested concentrations
[18] = range over SKOV3, HCT116, B16-F10, read-out: IC50 of mitochondrial respiration (range over cell lines)
[19] = B16-F10, figure 4a, read-out: IC50 (residual OCR, concentration-response)
[20] = 1 µM (highest concentration applied)

Structure (SMILES): Cc1nc(-c2nc(-c3ccc(OC(F)(F)F)cc3)no2)nn1Cc1cccc(N2CCC(S(C)(=O)=O)CC2)c1 [IACS-010759]
- effect on cell proliferation at optimized concentrations, NDUFS3^+/+ versus CI-defective counterparts [1]: reduced cell proliferation of NDUFS3^+/+ cells only
- lowest concentration that completely inhibited mitochondrial respiration (abolished OCR) [2]: 1 µM
- lowest concentration that completely inhibited mitochondrial respiration (abolished OCR) [3]: 1 µM
- concentration required to suppress maximal OCR (abolished OCR) ([4]; B16-F10): 5 µM

Structure (SMILES): CN(C)C(=N)NC(=N)N.Cl [metformin, 1,1-dimethylbiguanide hydrochloride]
- apoptotic cell death (portion of the cells) ([5]; 2.5 mM): 2.8%
- apoptotic cell death ([6]; 2.5 mM): comparable to the untreated control
- decrease of basal respiration (OCR) ([7]; acute injection, only at the highest concentration (50 mM), independently from the cell model): 25–35%
- concentration abolishing maximal respiration ([7]; cells pre-incubated (24 h)): 50 mM
- IC50 ([7]; range over SKOV3, HCT116, B16-F10, 24 h pre-incubation, read-out: IC50 of mitochondrial respiration (range over cell lines)): 225 to 1340 µM
- concentrations at which NDUFS3^−/− cell growth was reduced (CI-independent antiproliferative effect) ([8]; metformin, HCT116^−/−): all the tested concentrations
- concentrations at which NDUFS3^−/− cell growth was reduced (CI-independent antiproliferative effect) ([9]; metformin, SKOV3^−/−): all the tested concentrations
- reduction of cell growth after 72 h [10, 17]: 24–62%
- reduction of cell growth after 72 h [11, 17]: 58–90%
- reduction of cell growth after 72 h [12, 17]: 46–77%
- IC50 ([2]; HCT-116, pre-incubated 24 h before OCR measurement, figure 4a): 225 µM
- concentration abolishing basal OCR ([2]; pre-incubation for 24 h): 2 mM
- IC50 ([3]; SK-OV-3, pre-incubated 24 h before OCR measurement, figure 4a): 554 µM
- concentration abolishing basal OCR ([3]; pre-incubation for 24 h): 2 mM
- concentrations at which NDUFS3^−/− cell proliferation was reduced (CI-independent antiproliferative effect) ([13]; metformin, B16-F10^−/−, only at high concentrations): 10 to 20 mM
- IC50 ([4]; B16-F10, pre-incubated 24 h before OCR measurement, figure 4a, read-out: IC50 (residual OCR, concentration-response)): 1340 µM
- concentration abolishing basal OCR ([4]; pre-incubation for 24 h, B16-F10): 10 mM

Structure (SMILES): Nc1ccc2ncnc(NCCc3ccc(Oc4ccccc4)cc3)c2c1 [EVP 4593, N4-[2-(4-phenoxyphenyl)ethyl]-4,6-quinazolinediamine]
- apoptotic cell death ([5]; 20 µM): 24.6%
- apoptotic cell death ([6]; 20 µM): 77.6%
- concentration range completely suppressing mitochondrial respiration ([7]; in our models (SKOV3, HCT116, B16-F10)): 100 to 200 nM
- IC50 [7, 18]: 0.011 to 0.03 µM
- concentration causing reduction of NDUFS3^−/− cell growth ([8]; HCT116 NDUFS3^−/−): 10 to 20 µM
- concentration causing reduction of NDUFS3^−/− cell growth ([9]; SKOV3 NDUFS3^−/−): 20 µM
- decrease in cell proliferation after 72 h ([10]; 2.5–20 µM): 66–84%
- decrease in cell proliferation after 72 h ([11]; 2.5–20 µM): 49–62%
- decrease in cell proliferation after 72 h ([12]; 2.5–20 µM): 52–74%
- effect on cell proliferation at optimized concentrations, NDUFS3^+/+ versus CI-defective counterparts [1]: reduced cell proliferation of NDUFS3^+/+ cells only
- effect on CI-driven ATP synthesis [14]: strongly inhibit
- lowest concentration able to fully curb mitochondrial respiration [2]: 100 nM
- IC50 ([2]; HCT-116, figure 4a): 0.013 µM
- lowest concentration able to fully curb mitochondrial respiration [3]: 100 nM
- IC50 ([3]; SK-OV-3, figure 4a): 0.0111 µM
- concentration causing reduction of NDUFS3^−/− cell growth ([13]; B16-F10 NDUFS3^−/−): 20 µM
- lowest concentration able to fully curb mitochondrial respiration ([4]; B16-F10): 200 nM
- IC50 [4, 19]: 0.0299 µM
- apoptotic cell death ([15]; 2.5 µM): modest percentage of dead cells
- massive apoptotic cell death ([15]; optimized concentration (100 nM SKOV3 and HCT116, 200 nM B16-F10)): not detected

Structure (SMILES): Cc1cc(-c2nc(-c3ccc(OC(F)(F)F)cc3)no2)nn1Cc1ccnc(N2CCN(C3CC3)CC2)c1 [BAY 87-2243, 1-cyclopropyl-4-(4-[(5-methyl-3-{3-[4-(trifluoromethoxy)phenyl]-1,2,4-oxadiazol-5-yl)-1H-pyrazol-1-yl)methyl]pyridin-2-yl) piperazine]
- effect on CI-deficient cancer cell growth [16]: unaffected
- IC50 ([7]; human models (SKOV3, HCT116), read-out: IC50 (mitochondrial respiration)): 0.115 to 0.171 µM
- IC50 [7, 18]: 0.12 to 7 µM
- reduction of cell growth after 72 h treatment [10, 20]: 28%
- reduction of cell growth after 72 h treatment [11, 20]: 38%
- reduction of cell growth after 72 h treatment [12, 20]: 20%
- effect on cell proliferation at optimized concentrations, NDUFS3^+/+ versus CI-defective counterparts [1]: reduced cell proliferation of NDUFS3^+/+ cells only
- effect on CI-driven ATP synthesis [14]: strongly inhibit
- lowest concentration that completely inhibited mitochondrial respiration (abolished OCR) [2]: 1 µM
- IC50 ([2]; HCT-116, figure 4a): 0.172 µM
- lowest concentration that completely inhibited mitochondrial respiration (abolished OCR) [3]: 1 µM
- IC50 ([3]; SK-OV-3, figure 4a): 0.115 µM
- concentration required to suppress maximal OCR (abolished OCR) ([4]; B16-F10): 20 µM
- IC50 [4, 19]: 7.04 µM
- IC50 ([4]; murine B16-F10 cells, read-out: IC50 (mitochondrial respiration)): 7 µM
- fold less efficient in murine B16-F10 cells compared to human models ([4]; ratio of IC50, B16-F10 versus human models): 50 fold
- apoptosis (percentage of cells) ([15]; tested BAY 87-2243 concentrations): very low percentage of cells
